Experiments:
Format in all cases: physicochemical
[1] = Stability of fluorous alkoxysilyl ethers in CH2Cl2/trifluoroacetic acid (5%), remaining ether analysed by LC-MS; settings: aliquots quenched with MeOH/pyridine (20:1)
Description: Fluorous alkoxysilyl ethers (34a,b, 37a) were each dissolved in a mixture of CH2Cl2/trifluoroacetic acid (5%), and aliquots of these solutions were quenched with MeOH/pyridine (20:1). The quenched reaction mixtures were analyzed for remaining 34a,b and 37a by LC-MS (Liquid chromatography-mass spectrometry). Reactions and quenching were performed on a HP 7868 solution phase synthesizer. Analysis of quenched samples was done with a HP 1100 series LC/MS. Samples eluted were compared with unreacted control samples. (Rt [min]: 2.6 (34a), 2.9 (34b), 2.3 (37a); Novapak C18, 3.9×150 mm, 1.2 mL/min, MeOH as eluent).
(§1) The stability of these alkoxysilyl ethers appeared to be determined by the steric bulk around the silicon atom. While 34a was not very stable (t1/2˜6 min) under the acidic reaction conditions, 34b (t1/2˜4 h) was moderately stable, and the tert-butyl-phenyl-1H,1H,2H,2H-heptadecafluorodecyloxysilyl ether 37a (t1/2>>6 h) was very stable. […] As a result of the enhanced electrophilicity of the silicon atom in bis-alkoxysilyl ethers, the latter are generally more labile toward nucleophiles and bases than either the TBDPS or the tert-butyldimethylsilyl (TBDMS) groups. […] In contrast, the stability under protic acidic conditions in 5% p-TsOH/MeOH (t1/2˜40 min) is more limited.
Reactions and quenching were performed on a HP 7868 solution phase synthesizer. […]

[2] = Stability under protic acidic conditions in 5% p-TsOH/MeOH
Description: as §1

[3] = Stability in THF-d8 / 0.25 M NaOD (3:1), determined by 1H NMR; settings: THF-d8 and 0.25 M NaOD (3:1)
Description: as §1

t1/2 under the acidic reaction conditions [1]: > 6 h
t1/2 under protic acidic conditions [2]: ~0.667 h
t1/2 in mildly basic aqueous medium [3]: 48 h
Compound: CC(C)(C)[Si](OCCC(F)(F)C(F)(F)C(F)(F)C(F)(F)C(F)(F)C(F)(F)C(F)(F)C(F)(F)F)(OC1CCCCC1)c1ccccc1 (stereo not drawn) [37a, tert-butyl-phenyl-1H,1H,2H,2H-heptadecafluorodecyloxysilyl ether]
